In patent US20200054651A1, “COMPOSITIONS AND METHODS FOR MODULATING PPP2R1A” (The Regents of the University of California, priority 2017, published 2020):

How the values were obtained:
C377 of PPP2R1A = target: T1, C377 of PPP2R1A (Homo sapiens, UniProt P30153); assay: Competitive isoTOP-ABPP in 231MFP proteomes in vitro; assay type: binding
T1 construct: pre-incubating withaferin A (10 μM) for 30 min in 231MFP breast cancer cell proteomes; endogenous in cells; host or cells: 231MFP breast cancer cells (MDA-MB-231 derived)
Protocol: IsoTOP-ABPP studies were performed using the methods described in “Nature 534(7608), 570-574 (2016)” by Backus K. M., et al. and “Nature 468(7325), 790-795 (2010)” by Weerapana E., et al. Proteome samples diluted in PBS were treated with Withaferin A or vehicle for 30 minutes at 37° C. Then, IAyne (iodoacetamide-alkyne) labeling was performed for 1 hour at room temperature. CuAAC was used by sequential addition of tris(2-carboxyethyl)phosphine (1 mM), tris[(1-benzyl-1H-1,2,3-triazol-4-yl)methyl]amine (34 μM), copper (II) sulfate (1 mM), and biotin-linker-azide where the linker was functionalized with a TEV protease recognition sequence along with an isotopically light or heavy valine for treatment of control or treated proteome, respectively. After click reactions, proteomes were precipitated by centrifugation at 6500×g, washed in ice-cold methanol, combined in a 1:1 control/treated ratio, washed again, then denatured and re-solubilized by heating in 1.2% SDS/PBS to 80° C. for 5 minutes. Insoluble components were precipitated by centrifugation at 6500×g and soluble proteome was diluted in 0.2% SDS/PBS (5 ml). Labeled proteins were bound to avidin-agarose beads (170 μl re-suspended beads/sample) while rotating overnight at 4° C. Bead-linked proteins were enriched by washing three times each in PBS and water, then re-suspended in urea/PBS (6 M), reduced in TCEP (1 mM), alkylated with iodoacetamide (18 mM), then washed and re-suspended in urea/PBS (2 M), and finally trypsinized overnight with 0.5 μg/μl sequencing grade trypsin. Tryptic peptides were eluted off. Beads were washed in PBS (3 times) and water (3 times), washed in TEV buffer solution (water, TEV buffer, 100 μM dithiothreitol), and re-suspended in buffer with Ac-TEV protease and then incubated overnight. Peptides were diluted in water, acidified with formic acid (1.2 M), and prepared for analysis.
Peptides from all proteomic experiments were pressure-loaded onto an Agilent 600 series RP-HPLC system equipped with a capillary tubing (250 mm) packed with Aqua C18 reverse-phase resin (4 cm). The system was previously equilibrated with a gradient (0% B to 100% B over 10 minutes, 100% B for 5 minutes, then 0% B for 5 minutes; buffer A: 95:5 water:acetonitrile, 0.1% formic acid; buffer B: 80:20 acetonitrile:water, 0.1% formic acid). The samples were then attached using a MicroTee PEEK 360 μm fitting to a laser pulled column (13 cm) packed with Aqua C18 reverse-phase resin (10 cm) and strong-cation exchange resin (3 cm) for isoTOP-ABPP studies. Samples were analyzed using an Q Exactive Plus mass spectrometer using a 5-step Multidimensional Protein Identification Technology (MudPIT) program. […]

[1] = target: T2, pure human PPP2R1A protein (Homo sapiens, UniProt P30153); assay: Gel-based ABPP, competition against IAyne labeling; assay type: binding; settings: for IC50: 30 min at 37° C. pre-treatment, IAyne labeling; for competition against IAyne labeling of pure human PPP2R1A: 30 min pre-incubation
T2 construct: purchased Origene
Protocol: Gel-based ABPP methods were performed using the methods described in “Chem Biol 22(10), 1394-1405 (2015)” by Medina-Cleghorn D., et al. Recombinant pure human proteins were purchased from Origene. Pure proteins were pre-treated with DMSO, Withaferin A, or acrylamide or chloroacetamide compounds (e.g., DKM 2-90 or JNS 1-40) for 30 minutes at 37° C. in an incubation volume of PBS (50 μL), and were subsequently treated with IAyne (10 μM final concentration) for 30 minutes at room temperature. CuAAC was performed to append rhodamine-azide onto IAyne probe-labeled proteins. The samples were separated by SDS/PAGE and scanned using a ChemiDoc MP. Inhibition of target labeling was assessed by densitometry using ImageStudio Light software.

siPPP2R1A 231MFP cells = assay: Proliferation of siPPP2R1A knockdown 231MFP cells; assay type: cell-based; settings: 48 h after 48 h siRNA transfection
Excerpt: PPP2R1A was transiently knocked down with siRNA using previously described methods (Benjamin et al., 2014). siRNA for a scrambled RNA oligonucleotide control and pooled RNA oligonucleotides targeting PPP2R1A were purchased from Dharmacon.

[2] = tested on: 231MFP breast cancer cells; assay: 231MFP cell proliferation (Hoechst staining); assay type: cell-based; settings: 48 h; for cell proliferation: 231MFP

T2 sequence (P30153 whole entry): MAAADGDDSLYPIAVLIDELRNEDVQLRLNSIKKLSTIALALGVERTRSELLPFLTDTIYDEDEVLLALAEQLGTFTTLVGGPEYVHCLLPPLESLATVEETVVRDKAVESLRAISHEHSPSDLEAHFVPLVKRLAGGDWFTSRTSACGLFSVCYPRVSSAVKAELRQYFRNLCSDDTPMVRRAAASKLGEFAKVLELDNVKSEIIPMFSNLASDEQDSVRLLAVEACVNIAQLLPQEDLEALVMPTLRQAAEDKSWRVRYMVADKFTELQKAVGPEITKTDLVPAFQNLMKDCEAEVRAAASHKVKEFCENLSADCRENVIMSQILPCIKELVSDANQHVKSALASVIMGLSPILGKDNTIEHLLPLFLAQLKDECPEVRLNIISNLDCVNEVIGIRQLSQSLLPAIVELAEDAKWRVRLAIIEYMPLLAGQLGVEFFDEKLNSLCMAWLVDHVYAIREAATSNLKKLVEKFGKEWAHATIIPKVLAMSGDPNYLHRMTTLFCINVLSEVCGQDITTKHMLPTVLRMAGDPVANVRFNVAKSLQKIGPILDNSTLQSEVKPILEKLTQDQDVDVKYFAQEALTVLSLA
T1 sequence (P30153 whole entry): as above

O=C(CCl)Nc1ccc2c(c1)OCCO2 [DKM 2-90, 2-Chloro-N-(2,3-dihydrobenzo[β][1,4]dioxin-6-yl)acetamide]
isotopically light to heavy ratio, C377 of PPP2R1A (C377 of PPP2R1A; 100 μM, 30 min pre-treatment): quite selectively targeted C377 of PPP2R1A
IC50 [1]: 10 µM
competition against IAyne labeling of pure human PPP2R1A ([1]; gel-based ABPP): confirming the competition
anti-proliferative effect in siPPP2R1A versus siControl cells (siPPP2R1A 231MFP cells; 100 μM): attenuation
cell proliferation ([2]; 100 μM): lead compounds

O=C(CCl)N(Cc1ccccc1)c1ccc2c(c1)OCCO2 [JNS 1-40, N-benzyl-2-chloro-N-(2,3-dihydrobenzo[b][1,4]dioxin-6-yl)acetamide]
isotopically light to heavy ratio, C377 of PPP2R1A (C377 of PPP2R1A; 100 μM, 30 min pre-treatment): > 5
IC50 [1]: 0.63 µM
improved potency towards PPP2R1A compared to DKM 2-90 ([1]; gel-based ABPP): 16 fold
anti-proliferative effect in siPPP2R1A versus siControl cells (siPPP2R1A 231MFP cells; 100 μM): attenuated
cell proliferation ([2]; 100 μM): impaired

CC1=C(CO)C(=O)O[C@@H]([C@@H](C)[C@H]2CC[C@H]3[C@@H]4C[C@H]5O[C@]56[C@@H](O)C=CC(=O)[C@]6(C)[C@H]4CC[C@]23C)C1 [withaferin A, reference compound]
isotopically light to heavy ratio, C377 of PPP2R1A (C377 of PPP2R1A; 10 μM, 30 min pre-incubation, IAyne 100 μM): > 5
competition against IAyne labeling of pure human PPP2R1A ([1]; gel-based ABPP): full competition
anti-proliferative effect in siPPP2R1A versus siControl cells (siPPP2R1A 231MFP cells; 10 μM): significantly attenuated the anti-proliferative effects
cell proliferation ([2]; 10 μM): impairs
EC50 ([2]; serum-containing media, Hoechst staining, read-out: 50% effective concentration (EC50), impairment of 231MFP cell proliferation): 7.5 µM
